Reference: patent US20050209278A1, “Piperidinyl- and piperazinyl-sulfonylmethyl hydroxamic acids and their use as protease inhibitors” (priority 2002, published 2005)
Where “and” joins values, the source holds several entries; their conditions need not be identical. Equal values may be shown once.

What was measured:
[1] = molecular target: T1, MMP-1 (Homo sapiens, UniProt P03956); experiment: In vitro MMP inhibition, Ki determination (fluorogenic substrate II); type: biochemical; details: value outside parentheses; read-out: MMP-1 Ki
T1 construct: made in house; host or cells: MMP-1-transfected HT-1080 cells (spent media)
T1 sequence (P03956 100-469): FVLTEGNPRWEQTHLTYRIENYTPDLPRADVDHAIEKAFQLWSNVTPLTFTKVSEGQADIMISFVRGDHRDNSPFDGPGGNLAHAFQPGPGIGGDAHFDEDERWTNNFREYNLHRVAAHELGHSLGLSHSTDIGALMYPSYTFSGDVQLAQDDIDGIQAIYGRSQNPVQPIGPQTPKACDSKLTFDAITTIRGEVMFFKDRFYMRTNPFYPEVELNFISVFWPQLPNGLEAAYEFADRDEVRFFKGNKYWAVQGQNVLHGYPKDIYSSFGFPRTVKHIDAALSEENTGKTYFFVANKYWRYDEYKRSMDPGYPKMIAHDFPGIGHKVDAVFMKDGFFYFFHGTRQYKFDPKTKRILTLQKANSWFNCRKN

[2] = molecular target: T2, MMP-2 (Homo sapiens, UniProt P08253); experiment: as above; type: biochemical; details: value outside parentheses; read-out: MMP-2 Ki
T2 construct: made in house; host or cells: MMP-2-transfected p2AHT2 cells
T2 sequence (P08253 110-660): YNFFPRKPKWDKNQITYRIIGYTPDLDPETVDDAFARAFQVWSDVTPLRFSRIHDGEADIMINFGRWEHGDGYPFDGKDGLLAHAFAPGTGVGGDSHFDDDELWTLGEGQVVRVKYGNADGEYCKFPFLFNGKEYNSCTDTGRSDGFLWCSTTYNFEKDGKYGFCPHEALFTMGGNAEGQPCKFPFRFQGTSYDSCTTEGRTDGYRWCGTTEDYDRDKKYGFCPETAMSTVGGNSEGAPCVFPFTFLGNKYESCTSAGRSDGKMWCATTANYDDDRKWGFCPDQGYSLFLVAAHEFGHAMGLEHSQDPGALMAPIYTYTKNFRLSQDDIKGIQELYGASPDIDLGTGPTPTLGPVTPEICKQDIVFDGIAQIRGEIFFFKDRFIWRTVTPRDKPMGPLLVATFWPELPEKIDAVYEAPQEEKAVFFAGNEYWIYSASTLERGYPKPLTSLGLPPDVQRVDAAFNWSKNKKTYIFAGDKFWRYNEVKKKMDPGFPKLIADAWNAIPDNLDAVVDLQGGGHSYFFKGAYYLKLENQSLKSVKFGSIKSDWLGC

Row | SMILES | Ki [1] | Ki [2]
1 | CC(C)(C)c1ccc(-c2cnc(N3CCN(S(=O)(=O)C4(C(=O)NO)CCOCC4)CC3)s2)cc1 [Example 347] | 2770 nM | 8.57 nM
2 | O=C(NO)C1(S(=O)(=O)N2CCN(c3ccc(OCC(F)(F)C(F)F)cc3)CC2)CCOCC1 [Example 336] | 2640 nM | 0.606 nM
3 | O=C(NO)C1(S(=O)(=O)N2CCN(c3ccc(CCC(F)(F)C(F)(F)F)cc3)CC2)CCN(C2CC2)CC1 [Example 335] | > 10000 nM | 0.618 nM
4 | O=C(NO)C1(S(=O)(=O)N2CCN(c3ccc(-c4ccc(Cl)c(Cl)c4)cc3)CC2)CCOCC1 [Example 328] | 3720 nM | 3.58 nM
5 | O=C(NO)C1(S(=O)(=O)N2CCN(c3cnn(-c4ccccc4)c(=O)c3Cl)CC2)CCOCC1 [Example 329] | > 10000 nM | > 10000 nM
6 | O=C(NO)C1(S(=O)(=O)N2CCC(c3ccc(CCCC(F)(F)F)cn3)CC2)CCOCC1 [Example 338] | 9860 nM | 1.09 nM
7 | CCCCOc1ccc(N2CCN(S(=O)(=O)C3(C(=O)NO)CCN(CCOC)CC3)CC2)nc1 [Example 325] | 7510 nM | 0.18 nM
8 | COCCN1CCC(C(=O)NO)(S(=O)(=O)N2CCN(c3ncccn3)CC2)CC1 [Example 332] | 5110 nM | 190 nM
9 | O=C(NO)C1(S(=O)(=O)N2CCC(c3ccc(CCC(F)(F)C(F)(F)F)cn3)CC2)CCOCC1 [Example 340] | 5860 nM | 0.26 nM
10 | O=C(NO)C1(S(=O)(=O)N2CCN(c3ccc(-c4ccc(F)cc4F)cn3)CC2)CCOCC1 [Example 316] | 5520 nM | 0.73 nM
11 | O=C(NO)C1(S(=O)(=O)N2CCN(c3ccc(Br)cn3)CC2)CCOCC1 [Example 331] | 279 nM | 0.103 nM
12 | O=C(NO)C1(S(=O)(=O)N2CCN(c3cnn(-c4ccccc4)c(=O)c3)CC2)CCOCC1 [Example 322] | > 10000 nM | 7870 nM
13 | Cc1ccc(-c2cnc(N3CCN(S(=O)(=O)C4(C(=O)NO)CCOCC4)CC3)s2)cc1 [Example 344] | 3520 nM | 0.177 nM
14 | O=C(NO)C1(S(=O)(=O)N2CCC(c3ccc(OCC(F)(F)C(F)(F)F)cc3)CC2)CCOCC1 [Example 330] | 5360 nM | 1.18 nM
15 | COC(=O)c1ccc(N2CCN(S(=O)(=O)C3(C(=O)NO)CCOCC3)CC2)cc1 [Example 324] | 1860 nM | 1.22 nM
16 | O=C(NO)C1(S(=O)(=O)N2CCN(c3ncc(-c4ccc(Cl)cc4)s3)CC2)CCOCC1 [Example 343] | 5250 nM | 0.113 nM
17 | O=C(NO)C1(S(=O)(=O)N2CCN(c3ccc(OCC(F)(F)C(F)F)cc3)CC2)CCOCC1 [Example 326] | 6580 nM | 0.34 nM
18 | O=C(NO)C1(S(=O)(=O)N2CCN(c3ccc(OCCCC(F)(F)F)cc3)CC2)CC(O)C1 (stereo not shown) [Example 342] | > 10000 nM | 16.9 nM
19 | CCCCCc1cccc(N2CCN(S(=O)(=O)C3(C(=O)NO)CCOCC3)CC2)c1 [Example 356] | > 10000 nM | 65.7 nM
20 | O=C(NO)C1(S(=O)(=O)N2CCC(c3ccc(CCCC(F)(F)F)cc3)CC2)CCOCC1 [Example 353] | 8580 nM | 1.29 nM
21 | O=C(NO)C1(S(=O)(=O)N2CCC(N3CCN(c4ccc(Cl)cc4)CC3)CC2)CCOCC1 [Example 315] | > 10000 nM | 1820 nM
22 | O=C(NO)C1(S(=O)(=O)N2CCN(c3ccc(OCC4CC4)c(F)c3)CC2)CCOCC1 [Example 333] | > 10000 nM | 0.58 nM
23 | Cc1ccccc1-c1cnc(N2CCN(S(=O)(=O)C3(C(=O)NO)CCOCC3)CC2)s1 [Example 348] | > 10000 nM | 4.61 nM

Other lines, results leading:

Row | Ki [1] | Ki [2] | SMILES
24 | > 10000 nM | 1.39 nM | CCCCCc1ccc(-c2cnc(N3CCN(S(=O)(=O)C4(C(=O)NO)CCOCC4)CC3)s2)cc1 [Example 380]
25 | > 10000 nM | 7.17 nM | O=C(NO)C1(S(=O)(=O)N2CCC(c3ccc(-c4ccc(C(F)(F)F)cc4)cn3)CC2)CCOCC1 [Example 395]
26 | > 10000 nM | 11.2 nM | CCCCc1ccc(C2CCN(S(=O)(=O)C3(C(=O)NO)CCNCC3)CC2)nc1 [Example 388]
27 | > 10000 nM | 0.573 nM | O=C(NO)C1(S(=O)(=O)N2CCC(c3ccc(OCC(F)(F)C(F)F)cc3)CC2)CCN(CCN2CCOCC2)CC1 [Example 385]
28 | 2690 nM | 0.68 nM | O=C(NO)C1(S(=O)(=O)N2CCN(c3ncc(-c4cccnc4)s3)CC2)CCOCC1 [Example 382]
29 | > 10000 nM | 0.879 nM | O=C(NO)C1(S(=O)(=O)N2CCN(c3ncc(-c4ccc(Cl)c(Cl)c4)s3)CC2)CCOCC1 [Example 369]
30 | 8250 nM | 4.14 nM | COc1ccc(-c2cnc(N3CCN(S(=O)(=O)C4(C(=O)NO)CCOCC4)CC3)s2)cc1OC [Example 371]
31 | > 10000 nM | 201 nM | O=C(NO)C1(S(=O)(=O)N2CCN(c3ncc(-c4cccc(-c5ccccc5)c4)s3)CC2)CCOCC1 [Example 365]
32 | > 10000 nM | 0.281 nM | O=C(NO)C1(S(=O)(=O)N2CCN(c3ccc(CCCC(F)(F)F)cn3)CC2)CCOCC1 [Example 358]
33 | 3350 nM | 0.225 nM | O=C(NO)C1(S(=O)(=O)N2CCN(c3ncc(-c4ccc(O)cc4)s3)CC2)CCOCC1 [Example 368]
34 | > 10000 nM | 1230 nM | NC(=O)c1ccccc1-c1cnc(N2CCN(S(=O)(=O)C3(C(=O)NO)CCOCC3)CC2)s1 [Example 383]
35 | > 10000 nM | 6.12 nM | O=C(NO)C1(S(=O)(=O)N2CCC(COCc3ccccc3)CC2)CCOCC1 [Example 373]
36 | 2120 nM | 0.333 nM | O=C(NO)C1(S(=O)(=O)N2CCN(c3ncc(-c4ccc5c(c4)OCO5)s3)CC2)CCOCC1 [Example 362]
37 | > 10000 nM | 44.1 nM | O=C(NO)C1(S(=O)(=O)N2CCC(COCC(F)(F)C(F)F)CC2)CCOCC1 [Example 375]
38 | > 10000 nM | 0.14 nM | CCCCc1ccc(-c2cnc(N3CCN(S(=O)(=O)C4(C(=O)NO)CCOCC4)CC3)s2)cc1 [Example 379]
39 | 3780 nM | 0.919 nM | O=C(NO)C1(S(=O)(=O)N2CCC(c3ccc(OCC(F)(F)F)cc3)CC2)CCOCC1 [Example 357]
40 | > 10000 nM | 2.32 nM | CCCCc1ccc(C2CCN(S(=O)(=O)C3(C(=O)NO)CCN(CC)CC3)CC2)nc1 [Example 396]
41 | > 10000 nM | 6.71 nM | O=C(NO)C1(S(=O)(=O)N2CCN(c3ncc(-c4ccccn4)s3)CC2)CCOCC1 [Example 387]
42 | 611 nM and 795 nM | 0.451 nM and 0.479 nM | O=C(NO)C1(S(=O)(=O)N2CCN(c3ccc(-c4ccccc4)cn3)CC2)CCOCC1 [Example 372]
43 | 2160 nM | 0.264 nM | CC(C)c1ccc(-c2cnc(N3CCN(S(=O)(=O)C4(C(=O)NO)CCOCC4)CC3)s2)cc1 [Example 366]
44 | 7880 nM | 12.3 nM | O=C(NO)C1(S(=O)(=O)N2CCC(c3ccc(-c4cccnc4)cn3)CC2)CCOCC1 [Example 390]
45 | 2350 nM | 0.056 nM | O=C(NO)C1(S(=O)(=O)N2CCN(c3ncc(-c4ccc([N+](=O)[O-])cc4)s3)CC2)CCOCC1 [Example 363]
46 | 2600 nM | 0.266 nM | O=C(NO)C1(S(=O)(=O)N2CCN(c3ncc(-c4ccc(F)cc4F)s3)CC2)CCOCC1 [Example 359]
47 | > 10000 nM | 4.88 nM | O=C(NO)C1(S(=O)(=O)N2CCN(c3ccc(CCCC(F)(F)F)cc3F)CC2)CCOCC1 [Example 386]
